Experiments:
[1] = target: T1, HLA-A*0201/peptide complexes on T2 cells (Homo sapiens, UniProt P04439, D140Y/D185E/D98H/E176V/E277Q/G131W/G231S/I119V/I121R/I166T/I218V/L300P/L318F/N151K/N90K/P208A/P217A/Q86G/Q94H/R138H/R169H/T345S); assay: Peptide/HLA-A*0201 complex stability on T2 cells; type: binding; settings: authors' grading of the Table 2 data
T1 construct: Expression of HLA-A*0201 on T2 cells was then determined; endogenous in cells; host or cells: T2 cells
Protocol: Briefly, T2 cells (10^6/ml) were incubated overnight with the candidate peptides, respectively, at a concentration of 20 μg/ml in serum-free medium supplemented with β2-microglobulin at a concentration of 3 μg/ml at 37 °C.
Thereafter, they were washed four times to remove free peptides, incubated with Brefeldin A (10 µg/ml) for 1 h to block cell surface expression of newly synthesized HLA-A2.1 molecules, washed and incubated at 37 °C for 0, 2, 4, 6, or 8 h. Subsequently, cells were stained with anti-HLA-A2 antibody from BB7.2 cells to evaluate the HLA-A2.1 molecule expression. For each time point, peptide induced HLA-A*0201 expression was evaluated by the formula mentioned above. Dissociation complex50 (DC50) was defined as the time required for the loss of 50 % of the HLA-A*0201/peptide complexes stabilized at time = 0.

[2] = target: T2, HLA-A*0201 molecules on T2 cells (Homo sapiens, UniProt P04439, D140Y/D185E/D98H/E176V/E277Q/G131W/G231S/I119V/I121R/I166T/I218V/L300P/L318F/N151K/N90K/P208A/P217A/Q86G/Q94H/R138H/R169H/T345S); assay: Peptide-binding assay: up-regulation of HLA-A*0201 on T2 cells; settings: for FI (fluorescence index): 1 × 10^6 T2 cells, 50 μM peptide, serum-free RPMI 1640, β2-microglobulin 3 μg/ml, 16 h, 37 °C, flow cytometry with anti-HLA-A2 Ab (BB7.2) and FITC secondary, mean of triplicate; for affinity to HLA-A2.1 (in words): T2 cells, authors' grading of the Table 2 data
T2 construct: endogenous in cells; host or cells: T2 cells
Protocol: To determine whether the candidate epitopes can bind to HLA-A*0201 molecules, up-regulation of peptide-induced HLA-A*0201 molecules on T2 cells was examined. Briefly, according to previous reference, 1 × 10^6 T2 cells were incubated with 50 μM of the synthesized peptides in serum-free RPMI 1640 medium supplemented with β2-microglobulin (Sigma) at a concentration of 3 μg/ml for 16 h at 37 °C, 5 % CO2 [18]. Expression of HLA-A*0201 on T2 cells was then determined with the FACS Calibur flow cytometer (Becton–Dickinson, USA), by staining with primary anti-HLA-A2 Ab derived from BB7.2 and FITC-labeled goat-antimouse IgG (BD Biosciences Pharmingen, USA) secondary antibody. The data were analyzed using Cell Quest software (Becton–Dickinson, USA). The Fluorescence index (FI) was calculated as follows: FI = (mean FITC fluorescence with the given peptide − mean FITC fluorescence without peptide)/(mean FITC fluorescence without peptide). Samples were measured in triplicate and then mean FI was calculated. An octapeptide mHpa (519–526) ([…]) derived from mouse Hpa was served negative control.

IFN-γ-producing T cells = assay: IFN-γ ELISPOT assay of peptide-induced effectors; type: cell-based; settings: human HLA-A2+ donor T cells restimulated every 7 days with DCs pulsed with 100 μg/ml peptide; assessed on day 23; triplicate; compared to negative peptide control, P < 0.05
Protocol: (§1) PBMCs were isolated from healthy HLA-A2+ donors by Ficoll–Hypaque density gradient centrifugation (TBC company, Tianjing, China) and then seeded into culture flasks in RPMI-1640 medium supplemented with penicillin (100 U/ml), streptomycin (100 μg/ml), and 10 % FBS. After monocytes adhered (incubation for 2 h), the nonadherent cells were collected and frozen in freeze medium (60 % RPMI-1640 and 30 % FBS, 10 % DMSO) for later use in CTL assays. The adherent cells were cultured for 5 days in RPMI-1640 containing 1,000 U/ml of granulocyte–macrophage colony-stimulating factor (R&D Systems, Inc., Minneapolis, MN) and interleukin-4 (IL-4; R&D Systems, Inc.) and were the cultured for an additional 2 days in the presence of 1,000 U/ml of tumor necrosis factor α (R&D Systems, Inc.) to induce final maturation. After 7 days of culture, the mature DCs were harvested and analyzed for DC typical phenotypes by FACS analysis.
(§2) Briefly, DCs were loaded with different peptides at a final concentration of 100 μg/ml for 4 h and were then irradiated with 20 Gy, which prevented all outgrowths in the control cultures. Autologous T cells were restimulated every 7 days with the previously mentioned peptide-pulsed DCs to generate peptide-specific CTLs. Recombinant interleukin 2 (IL-2) at a concentration of 20 U/ml was added to the culture medium on day 3 after every stimulation. Cytotoxic T lymphocyte activity was then assessed on day 23 by a 4 h ^51Cr release assay. Effectors generated from negative peptide-pulsed DCs were used as controls.
IFN-γ secretion of effectors was assayed by enzyme-linked immunospot (ELISPOT). Multiscreen 96-well assay plates (Dakewe, Shenzhen, China) were precoated overnight at 4 °C with anti-IFN-γ antibody according to the manufacturer’s instruction. After washing with PBST (PBS-0.05 % Tween 20), plates were blocked for 1 h at 37 °C with PBS/1 % BSA. […] After being air-dried, the number of spots in each well was counted using the Bioreader 4000 PRO-X (Bio-Sys; Germany).
Fig. 2 Specific IFN-γ by ELISPOT assay. […] The IFN-γ secretion was then assessed on day 23. […]

[3] = system: target cells expressing neuritin and HLA-A2.1; assay: 4-h 51Cr release cytotoxicity assay of CTLs induced in vitro; type: cell-based, human; settings: PBMCs from four HLA-A2.1+ donors stimulated with peptide-pulsed DCs, E/T 25:1, 50:1, 100:1, triplicate
Protocol: as §1, §2
To evaluate the levels of CTL activity, a standard 4-h ^51Cr release assay was used. Briefly, target cells were incubated with ^51Cr (100 μCi per 1 × 10^6 cells) for 2 h in a 37 °C water bath. […] After a 4-h incubation, the supernatants were harvested, and the amount of released ^51Cr was measured with a gamma counter. The percent specific lysis was calculated according to the following formula: […]
Fig. 3 Specific lysis of CTLs against target cells. […] After a 4-h incubation, the supernatants were harvested, and the amount of released ^51Cr was measured with a gamma counter. […]

[4] = system: neuritin and HLA-A2.1 positive cells; assay: In vivo immunogenicity: CTLs from immunized mice, 51Cr release assay; settings: HLA-A*0201/Kb mice, 100 μg peptide in IFA, boosted once a week for three times, splenocytes 7 days after immunization as effectors
Protocol: To evaluate the levels of CTL activity, a standard 4-h ^51Cr release assay was used. Briefly, target cells were incubated with ^51Cr (100 μCi per 1 × 10^6 cells) for 2 h in a 37 °C water bath. After incubation with ^51Cr, target cells were washed three times with PBS, resuspended in RPMI-1640 medium, and mixed with effector cells at a 25:1, 50:1 or 100:1 of effector to target (E/T) ratio. Assays were performed in triplicate for each sample at each ratio in a 96-well round-bottomed plate. After a 4-h incubation, the supernatants were harvested, and the amount of released ^51Cr was measured with a gamma counter. The percent specific lysis was calculated according to the following formula:
Specific lysis = (experimental release − spontaneous release)/(maximal release − spontaneous release) × 100 %
(§3) HLA-A*0201/Kb mice were immunized with 100 μg of various peptides prepared in incomplete Freund’s adjuvant (IFA) and boosted once a week for three times. As a control, mice were injected with an IFA emulsion without peptide. 7 days after immunization, splenocytes from injected animals were cultured and used as effector cells.
as §3, with “Fig. 5 In vivo induction of epitope-specific CTLs in vivo. HLA-A*0201/Kb” for “HLA-A*0201/Kb”, “cells. The cytotoxic activities of CTLs were determined against target cells at various E/T ratios using ^51Cr release assay. […] Compared with controls, P < 0.05” for “cells.”

| Sequence | stability to HLA-A2.1 (in words) [1] | FI (fluorescence index) [2] | affinity to HLA-A2.1 (in words) [2] | peptide-specific T cell response (frequency of IFN-γ-producing T cells) (IFN-γ-producing T cells) | induction of neuritin-specific CTLs that lyse target cells [3] | lysis of target cells by CTLs primed in immunized mice [4] |
| --- | --- | --- | --- | --- | --- | --- |
| VLLVSLSAA [neuritin127–135] | low | 0.68 | low | – | – | – |
| ILAVQIAYL [neuritin13–21] | high | 1.68 | high | strong peptide-specific T cell response | able to elicit neuritin-specific CTLs | could lyse neuritin and HLA-A2.1 positive cells with high efficiency |
| KLNGRYISL [neuritin4–12] | – | 1.07 | moderate | strong peptide-specific T cell response | able to elicit neuritin-specific CTLs | could lyse neuritin and HLA-A2.1 positive cells with high efficiency |
| FSYGFFVI [mHpa (519–526), reference compound] | – | 0.38 | – | – | – | – |
| LLPAFPVLL [neuritin121–129] | – | 1.24 | moderate | strong peptide-specific T cell response | able to elicit neuritin-specific CTLs | could lyse neuritin and HLA-A2.1 positive cells with high efficiency |

Source: publication PMC3724992, “Identification of new HLA-A*0201-restricted cytotoxic T lymphocyte epitopes from neuritin” (Journal of Neuro-Oncology, 2013)
